# Laboratory results: ChEMBL document CHEMBL1130482, “Synthesis and activity of C2-substituted analogs of influenza neuraminidase inhibitor GS 4071” (Bioorg Med Chem Lett, 1997)
# Experiment: Concentration required for the inhibition of influenza neuraminidase activity by 50%
# Parameters: species or system unidentified influenza virus
row,SMILES,IC50 [nM]
1,CCC(CC)O[C@@H]1C(SC)=C(C(=O)O)C[C@H](N)[C@H]1NC(C)=O,3400
2,CCC(CC)O[C@@H]1C(C)=C(C(=O)O)C[C@H](N)[C@H]1NC(C)=O,2300
3,CCC(CC)O[C@@H]1C(Cl)=C(C(=O)O)C[C@H](N)[C@H]1NC(C)=O,3100
4,CCC(CC)O[C@@H]1C=C(C(=O)O)C[C@H](N)[C@H]1NC(C)=O [OSELTAMIVIR CARBOXYLATE],1.4
